# Entries after “also recorded” stand apart in the source; their conditions may differ. Residues, ends and D or L forms follow the SMILES beside them. No end group written: not given here.
# Key:
# hTRPV1 = target: T1, hTRPV1 (Homo sapiens, UniProt Q8NER1); experiment: Calcium imaging (Fura-2AM) of capsaicin-induced Ca2+ influx in TRPV1 CHO-K1 cells; assay type: cell-based; settings: for inhibition at 0.001 µM: peptide at 1 nM; for inhibition at 0.005 µM: peptide at 5 nM; for inhibition at 0.1 µM: peptide at 100 nM; for influx of calcium into TRPV1 channel (ΔF/F): FIG. 1, peptide injected; for TRPV1 inhibitory activity / inhibition rate (screening): screening of peptides
# T1 construct: expressed in transfected cells; the earlier reading calls it TRPV1 CHO-K1 cells
# T1 sequence (Q8NER1 whole entry): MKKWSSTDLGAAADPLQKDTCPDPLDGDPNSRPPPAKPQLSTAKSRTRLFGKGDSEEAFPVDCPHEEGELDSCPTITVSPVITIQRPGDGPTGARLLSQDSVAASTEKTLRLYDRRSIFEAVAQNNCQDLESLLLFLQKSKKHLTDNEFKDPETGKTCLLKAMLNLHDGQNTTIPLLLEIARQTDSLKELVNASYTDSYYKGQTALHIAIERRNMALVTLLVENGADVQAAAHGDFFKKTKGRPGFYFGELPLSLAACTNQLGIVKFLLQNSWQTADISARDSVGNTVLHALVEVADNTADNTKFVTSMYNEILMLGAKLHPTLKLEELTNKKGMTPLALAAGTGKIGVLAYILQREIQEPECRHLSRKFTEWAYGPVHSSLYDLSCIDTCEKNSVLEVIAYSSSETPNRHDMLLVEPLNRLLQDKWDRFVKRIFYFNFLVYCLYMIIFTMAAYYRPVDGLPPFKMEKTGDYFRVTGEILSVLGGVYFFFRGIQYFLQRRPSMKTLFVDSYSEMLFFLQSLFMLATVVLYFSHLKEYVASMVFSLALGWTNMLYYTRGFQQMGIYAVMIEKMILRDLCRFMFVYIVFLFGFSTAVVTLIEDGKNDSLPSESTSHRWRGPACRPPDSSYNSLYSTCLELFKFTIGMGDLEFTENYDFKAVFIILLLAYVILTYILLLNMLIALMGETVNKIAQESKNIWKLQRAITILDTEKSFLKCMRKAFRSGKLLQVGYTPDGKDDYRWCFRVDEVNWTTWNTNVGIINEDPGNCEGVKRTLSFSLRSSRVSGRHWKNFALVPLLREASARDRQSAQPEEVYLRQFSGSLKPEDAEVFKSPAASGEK
# Procedure: The TRPV1 inhibitory effect of various short-length peptides, including the 49 peptides in Tables 5 and 6, was evaluated by the following method.
# All reagents used in cell culture were sterilized products. The culture medium of the cell line is shown in Table 7 below, and the culture was performed in a cell incubator with under the culture conditions of […] and 37° C. In addition, when cryopreserved cells (stock) were thawed and used, they were subcultured two to three times before use in the test.
# After removing the cell culture medium by suction, 10 ml DPBS was added to wash the cells, and then the DPBS was removed by suction. 2 ml 0.05% trypsin-EDTA was added, and then the cells were cultured in a cell incubator at 37° C. for three to five minutes. Through a microscope, detachment of the cells from the bottom surface of the culture dish was confirmed, and 8 ml of the cell culture medium including 10% FBS was added to inactivate the trypsin-EDTA. Cells in the culture dish were collected, pipetted, and transferred to a 15 ml tube.
# Centrifugation was performed at 800 rpm for five minutes, and all the supernatant except the cell pellet was removed. Then, the cell culture medium was added, and the pellet was carefully loosened.
# After measuring the number of cells with a hemocytometer, the cells were dispensed at 1×10^3 cells/10 μl/coverslip at the center of a 12 mm cover slip coated with poly-D-lysine.
# A 35π petri dish containing the cover slip was stored in a cell incubator, and when the cells were attached to the cover slip after one to two hours, 2 ml of the cell culture medium was added and stored in the cell incubator again.
# The sample was added to 200 ml distilled water (DW) and mixed according to the composition in Table 8 below.
# The pH was adjusted to a range of 7.3 to 7.4 using 5 N NaOH, and then distilled water (DW) was added to adjust the final volume to 250 ml.
# Capsaicin was dissolved in 100% ethanol to prepare a 10 mM stock. Capsaicin, a TRPV1 activating substance, was diluted in the extracellular solution to a concentration of 0.1-1 mM before using in the experiment.
# The test material (peptide according to the present invention) was dissolved in a solvent and then diluted to an appropriate concentration in the extracellular solution before using in the experiment.
# 2 mM Fura-2AM was prepared by adding 24.95 ml of DMSO to 50 mg of Fura 2AM powder, which is used as a membrane-permeable fluorescent marker. After the experiment, the remaining Fura-2AM was stored at −20° C. for reuse and covered with silver foil to prevent exposure to light.
# 2 mM Fura-2AM was diluted 1/1000 in a cell culture medium without FBS and antibiotics to prepare 1 ml Fura-2AM (based on a 35π Petri dish) to a final concentration of […]. After removing the cell culture medium in the 35π Petri dish, the cells were washed once with 2 ml DPBS. 1 ml of the Fura-2AM solution prepared above was transferred to a 35π Petri dish, and the cells were cultured in a cell incubator for 40 min.
# To operate calcium imaging equipment, an IRIS-9 camera was turned on and then a computer was powered on. To operate a perfusion system, a suction device was powered on, 20 to 30 ml of distilled water was added to each perfusion syringe, and suction was performed while allowing the distilled water to flow into the chamber (syringe wash).
# The extracellular solution and test materials prepared in advance were placed in the syringes washed with distilled water, and smooth flow of the solutions from each syringe into the chamber was confirmed. At this time, clips were used to block all the lines except one syringe line to be checked. In other words, the flow of the solution through only a single syringe line without the clip was checked (When the solution flows through two or more lines, the solutions could have been mixed.).
# pain caused by capsaicin = experiment: Capsaicin test (pain behavioral response); assay type: in vivo, C57BL/6N mouse; settings: 0.5 mg/kg I.P. one hour before 0.01% capsaicin; 0 to 5 minutes; FIG. 5
# Procedure: An in vivo test was performed with the peptides of SEQ ID NOS: 5, 6, 9, and 11.
# • a. […] Preparation of positive control material: BCTC was homogeneously dissolved in a saline solution at a concentration of 3 mg/mL. • e.
# • a. Preparation of test materials: The peptides of SEQ ID NOS: 5, 6, 9, and 11 were dissolved in a saline solution to prepare at a concentration of 0.05 mg/mL. • b.
# • a. Saline solution, BCTC, and peptides of SEQ ID NOS: 5, 6, 9, and 11, the administered materials corresponding to each group, were administered in advance about one hour before capsaicin administration. • b. One hour after the test material administration to each group, 20 μL of 0.01% capsaicin was injected subcutaneously into the sole of the right foot. • c. After administering […] to each subject, the time at which pain behavioral responses (licking, biting, etc.) appeared was measured in the interval of 0 to 5 minutes. • d. Grooming in regions other than the region where capsaicin was administered was not counted. • e.
# In a previous study, the pain inhibiting effect was confirmed through a formalin test. To confirm whether such pain inhibiting phenomenon is through TRPV1, the pain response pattern was investigated after subcutaneous injection of capsaicin, which is one of the TRPV1 activators.
# CCI pain model = experiment: CCI pain model, Von Frey test; settings: amount printed 1 mg/ml (0.1 mg/mL, 200 μL I.P.); two hours after administration; FIG. 6
# CIPN pain model = experiment: CIPN (paclitaxel) pain model, Von Frey test; assay type: in vivo, SD rat; settings: one, three and seven hours after administration, FIG. 8
# Procedure: • a. […] Preparation of positive control material: Prebabalin was homogeneously dissolved in a saline solution at a concentration of 30 mg/10 mL and used. • e.
# • a. […] Chemotherapy induced peripheral neuropathy (CIPN) pain modeling
# Paclitaxel was dissolved at 2 mg/10 ml in a solution prepared by mixing cremophor EL and absolute ethanol at a 1:1 ratio, and the resulting solution was administered intraperitoneally in the amount of 2 ml each. Chemotherapy-induced pain was induced by administering paclitaxel once a day at 24-hour intervals for 4 days. • c. Confirmation of pain induction
# Drug administration and confirmation of analgesic efficacy
# Statistical analysis processing
# pain caused by formalin = experiment: Formalin test (pain behavioral response); assay type: in vivo, ICR mouse; settings: 2nd phase (20 to 40 minutes), vs saline group, FIG. 4
# Procedure: An in vivo test was performed with the peptides of SEQ ID NOS: 11 and 12.
# • a. […] Preparation of positive control material: Pregabalin was homogeneously dissolved in a saline solution at a concentration of 3 mg/mL. • e.
# • a. Saline solution, pregabalin, peptide of SEQ ID NO: 11, and peptide of SEQ ID NO: 12, the administered materials corresponding to each group, were administered in advance about one hour before formalin administration. • b. One hour after the test material administration to each group, 20 μL of 2% formalin was injected subcutaneously into the sole of the right foot. • c. After administering […] to each subject, the time at which pain behavioral responses (licking, biting, etc.) appeared was measured in the intervals of 0 to 5 minutes and 20 to 40 minutes. • d. Grooming in regions other than the region where formalin was administered was not counted. • e.
# The formalin test is a method of evaluating the degree of pain by subcutaneously injecting formalin into the dorsum of the hind paw of a mouse and then observing the behavior that appears thereafter. The degree of pain is evaluated by the number of times or duration of flinching responses. […]
# SNL pain model = experiment: SNL pain model, Von Frey test; settings: 2 mg/kg I.P.; one, three and seven hours after administration; FIG. 7
# [1] = CHO-K1, read-out: hTRPV1 activity inhibited compared to the control group
Molecule,inhibition at 0.001 µM (hTRPV1; [1]),inhibition at 0.005 µM (hTRPV1; [1]),"inhibition at 0.01 µM (hTRPV1; CHO-K1, peptide at 10 nM, read-out: hTRPV1 activity inhibited compared to the control group)","inhibition at 0.05 µM (hTRPV1; CHO-K1, peptide at 50 nM, read-out: hTRPV1 activity inhibited compared to the control group)",inhibition at 0.1 µM (hTRPV1; [1]),"inhibition at 0.5 µM (hTRPV1; CHO-K1, peptide at 500 nM, read-out: hTRPV1 activity inhibited compared to the control group)",influx of calcium into TRPV1 channel (ΔF/F) (hTRPV1),TRPV1 inhibitory activity / inhibition rate (screening) (hTRPV1),"pain behavioral response (licking, biting) after capsaicin (pain caused by capsaicin)","inhibition at 0.0005 µM (hTRPV1; CHO-K1, peptide at 0.5 nM, read-out: hTRPV1 activity inhibited compared to the control group)","pain behavioral response threshold (Von Frey), after vs before administration (CCI pain model)","pain behavioral response threshold (Von Frey), after vs before administration (CIPN pain model; 4 mg/kg I.P.)","pain behavioral response (licking, biting) after formalin (pain caused by formalin; 8 mg/kg I.P. one hour before 2% formalin)","pain behavioral response threshold (Von Frey), after vs before administration (SNL pain model)","pain behavioral response threshold (Von Frey), after vs before administration (CIPN pain model; 2 mg/kg I.P.)","pain behavioral response (licking, biting) after formalin (pain caused by formalin; 4 mg/kg I.P. one hour before 2% formalin)"
"C[C@H](NC(=O)[C@H](CCCCN)NC(=O)[C@@H](N)Cc1ccc(O)cc1)C(=O)N[C@@H](CC(N)=O)C(=O)N[C@@H](Cc1ccc(O)cc1)C(=O)N[C@@H](CS)C(=O)N[C@@H](CO)C(=O)NCC(=O)N[C@@H](CCC(N)=O)C(=O)N[C@@H](CS)C(=O)N[C@@H](Cc1ccc(O)cc1)C(=O)O [SEQ ID NO: 5, YKANYCSGQCY] (H-YKANYCSGQCY-OH; N-terminus and C-terminus assumed)",~20%,53%,75%,79%,77%,95%,the influx of calcium was significantly reduced,high inhibition rate of TRPV1,significant decrease of the pain behavioral response; also recorded: inhibited the pain caused by the peripheral and central sensitization,–,–,–,–,–,–,–
AGQCYMFMQKY [SEQ ID NO: 9],–,–,–,–,–,–,–,high inhibition rate of TRPV1,inhibited the pain caused by the peripheral and central sensitization,–,–,–,–,–,–,–
"SGQCYMFMQKY [SEQ ID NO: 6, SGQCYMFMQKY]",16%,51%,–,–,70%,–,the influx of calcium was significantly reduced,high inhibition rate of TRPV1,significant decrease of the pain behavioral response; also recorded: inhibited the pain caused by the peripheral and central sensitization,~9%,–,–,–,–,–,–
YGQCYMWMQKW [SEQ ID NO: 11],–,–,–,–,–,–,–,high inhibition rate of TRPV1,significant decrease of the pain behavioral response; also recorded: inhibited the pain caused by the peripheral and central sensitization,–,the pain behavioral response threshold increased after the administration compared to before the administration,the pain behavioral response threshold increased after the administration compared to before the administration,significant decrease of the pain behavioral response in the 2nd phase,the pain behavioral response threshold increased after the administration compared to before the administration,–,–
YGQCYMYMQKW [SEQ ID NO: 12],–,–,–,–,–,–,–,high inhibition rate of TRPV1,–,–,the pain behavioral response threshold increased after the administration compared to before the administration,–,–,the pain behavioral response threshold increased after the administration compared to before the administration,the pain behavioral response threshold increased after the administration compared to before the administration,significant decrease of the pain behavioral response in the 2nd phase
